Experimental findings from patent US11780893B2, “Kv1.3 blockers” (Zealand Pharma A/S, priority 2019, dated 2023) are described below.

The term IC50 denotes the concentration at which inhibition is half-maximal.

Bridge positions count the residues as written; N and C are the ends. Square brackets hold non-standard residues; d marks the D form. Peptide text beside a SMILES is read from it. Nle = CCCC[C@H](N)C(=O)O

The target of the assay is T1, human Kv1.3 voltage-gated K+ channel (Homo sapiens, UniProt P22001).
T1 construct: host or cells: CHO-DUKX
T1 sequence (P22001 whole entry): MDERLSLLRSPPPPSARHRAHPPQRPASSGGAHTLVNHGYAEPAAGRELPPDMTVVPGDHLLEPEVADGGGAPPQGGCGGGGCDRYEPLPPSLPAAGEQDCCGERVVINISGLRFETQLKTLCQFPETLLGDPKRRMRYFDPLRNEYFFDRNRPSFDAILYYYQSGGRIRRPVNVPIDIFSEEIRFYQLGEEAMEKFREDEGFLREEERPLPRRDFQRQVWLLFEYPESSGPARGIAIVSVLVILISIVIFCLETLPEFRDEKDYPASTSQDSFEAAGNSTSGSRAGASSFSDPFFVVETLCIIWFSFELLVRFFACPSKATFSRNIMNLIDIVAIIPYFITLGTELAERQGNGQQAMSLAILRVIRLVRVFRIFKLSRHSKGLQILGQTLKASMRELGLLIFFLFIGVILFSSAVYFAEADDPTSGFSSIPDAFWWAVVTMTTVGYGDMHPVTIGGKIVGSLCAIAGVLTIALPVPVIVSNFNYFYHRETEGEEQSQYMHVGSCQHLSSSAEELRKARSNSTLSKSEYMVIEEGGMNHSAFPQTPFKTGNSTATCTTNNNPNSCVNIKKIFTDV
As to the kind of experiment: cell-based. As to conditions: inhibition of thallium flux, CHO-DUKX cells with human Kv1.3; read-out: IC50.
As to `CC[C@H](C)[C@@H]1NC(=O)[C@H](C)NC(=O)[C@H](CCCCN)NC(=O)[C@H](CC(C)C)NC(=O)[C@@H]2CSSC[C@@H](C(=O)N[C@@H](Cc3ccc(O)cc3)C(=O)N3CCC[C@H]3C(=O)N[C@@H](CCCNC(=N)N)C(=O)O)NC(=O)[C@H](CCCCN)NC(=O)[C@@H]3CSSC[C@H](NC(=O)[C@H](CCC(=O)O)NC(=O)[C@H](C(C)C)NC(=O)[C@H](CO)NC(=O)[C@H](C)NC(=O)[C@H](CO)NC(=O)[C@@H](NC(=O)[C@H](CCCNC(=N)N)NC(=O)[C@H](CCSC)NC(=O)[C@H](CC(=O)O)NC(=O)[C@H](CCSC)NC(=O)[C@H](CC(N)=O)NC(=O)CNC(=O)[C@@H](N)CO)CSSC[C@H](NC(=O)[C@H](CCCCN)NC(=O)CNC(=O)[C@H](Cc4ccccc4)NC(=O)[C@H]([C@@H](C)CC)NC(=O)[C@H](CO)NC(=O)CNC1=O)C(=O)N[C@@H](CCSC)C(=O)N[C@@H](CC(N)=O)C(=O)N[C@@H](CCCCN)C(=O)N[C@@H](CCCCN)C(=O)N3)C(=O)N[C@@H](CCCCN)C(=O)N[C@@H](CCC(N)=O)C(=O)N[C@@H](CCCCN)C(=O)N2` [Compound 13] (H-SGNMDMRCSASVECKQKCLKAIGSIFGKCMNKKCKCYPR-OH; disulfide 8-29, 14-34, 18-36), the IC50 stood at 0.26 nM. On to `CC[C@H](C)[C@@H]1NC(=O)[C@H](C)NC(=O)[C@H](CCCCN)NC(=O)[C@H](CC(C)C)NC(=O)[C@@H]2CSSC[C@@H](C(=O)N[C@@H](Cc3ccc(O)cc3)C(=O)N3CCC[C@H]3C(=O)N[C@@H](CCCNC(=N)N)C(=O)O)NC(=O)[C@H](CCCCN)NC(=O)[C@@H]3CSSC[C@H](NC(=O)[C@H](CCC(=O)O)NC(=O)[C@H](C(C)C)NC(=O)[C@H](CO)NC(=O)[C@H](C)NC(=O)[C@H](CO)NC(=O)[C@@H](NC(=O)[C@H](CCCNC(=N)N)NC(=O)[C@H](CCSC)NC(=O)[C@@H](N)CC(=O)O)CSSC[C@H](NC(=O)[C@H](CCCCN)NC(=O)CNC(=O)[C@H](Cc4ccccc4)NC(=O)[C@H]([C@@H](C)CC)NC(=O)[C@H](CO)NC(=O)CNC1=O)C(=O)N[C@@H](CCSC)C(=O)N[C@@H](CC(N)=O)C(=O)N[C@@H](CCCCN)C(=O)N[C@@H](CCCCN)C(=O)N3)C(=O)N[C@@H](CCCCN)C(=O)N[C@@H](CCC(N)=O)C(=O)N[C@@H](CCCCN)C(=O)N2` [Compound 6] (H-DMRCSASVECKQKCLKAIGSIFGKCMNKKCKCYPR-OH; disulfide 4-25, 10-30, 14-32), for which the IC50 was 0.34 nM. Consider `CCCC[C@H](NC(=O)[C@@H]1CCCN1)C(=O)N[C@@H](CCC(=O)O)C(=O)N[C@@H](CCCC)C(=O)N[C@@H](CCCNC(=N)N)C(=O)N[C@H]1CSSC[C@@H]2NC(=O)[C@H](CCCCN)NC(=O)CNC(=O)[C@H](Cc3ccccc3)NC(=O)[C@H]([C@@H](C)CC)NC(=O)[C@H](CO)NC(=O)CNC(=O)[C@H]([C@@H](C)CC)NC(=O)[C@H](C)NC(=O)[C@H](C)NC(=O)[C@H](CC(C)C)NC(=O)[C@@H]3CSSC[C@@H](C(=O)N[C@@H](Cc4ccc(O)cc4)C(=O)N4CCC[C@H]4C(=O)N[C@@H](CCCNC(=N)N)C(=O)N[C@@H](CC(C)C)C(=O)O)NC(=O)[C@H](CCCCN)NC(=O)[C@H](CSSC[C@H](NC(=O)[C@H](CCC(=O)O)NC(=O)[C@H](C(C)C)NC(=O)[C@H](CO)NC(=O)[C@H](C)NC(=O)[C@H](CO)NC1=O)C(=O)N[C@@H](CCCCN)C(=O)N[C@@H](CCC(N)=O)C(=O)N[C@@H](CCCCN)C(=O)N3)NC(=O)[C@H](CCCCN)NC(=O)[C@H](CCCCN)NC(=O)[C@H](CC(N)=O)NC(=O)[C@H](CCCC)NC2=O` [Compound 124] (H-P[Nle]E[Nle]RCSASVECKQKCLAAIGSIFGKC[Nle]NKKCKCYPRL-OH; disulfide 6-27, 12-32, 16-34), for which the IC50 was found to be 1.47 nM. As to `CC[C@H](C)[C@@H]1NC(=O)[C@H](C)NC(=O)[C@H](CCCCN)NC(=O)[C@H](CC(C)C)NC(=O)[C@@H]2CSSC[C@@H](C(=O)N[C@@H](Cc3ccc(O)cc3)C(=O)N3CCC[C@H]3C(=O)N[C@@H](CCCNC(=N)N)C(N)=O)NC(=O)[C@H](CCCCN)NC(=O)[C@@H]3CSSC[C@H](NC(=O)[C@H](CCC(=O)O)NC(=O)[C@H](C(C)C)NC(=O)[C@H](CO)NC(=O)[C@H](C)NC(=O)[C@H](CO)NC(=O)[C@@H](NC(=O)[C@H](CCCNC(=N)N)NC(=O)[C@H](CCSC)NC(=O)[C@H](CC(=O)O)NC(=O)[C@H](CCSC)NC(=O)[C@@H](N)CC(N)=O)CSSC[C@H](NC(=O)[C@H](CCCCN)NC(=O)CNC(=O)[C@H](Cc4ccccc4)NC(=O)[C@H]([C@@H](C)CC)NC(=O)[C@H](CO)NC(=O)CNC1=O)C(=O)N[C@@H](CCSC)C(=O)N[C@@H](CC(N)=O)C(=O)N[C@@H](CCCCN)C(=O)N[C@@H](CCCCN)C(=O)N3)C(=O)N[C@@H](CCCCN)C(=O)N[C@@H](CCC(N)=O)C(=O)N[C@@H](CCCCN)C(=O)N2` [Compound 7] (H-NMDMRCSASVECKQKCLKAIGSIFGKCMNKKCKCYPR-NH2; disulfide 6-27, 12-32, 16-34), the IC50 came out at 0.12 nM. The result for `CCCC[C@H](NC(=O)[C@H](CC(=O)O)NC(=O)[C@H](CCCC)NC(=O)[C@@H](N)CO)C(=O)N[C@@H](CCCNC(=N)N)C(=O)N[C@H]1CSSC[C@@H]2NC(=O)[C@H](CCCCN)NC(=O)CNC(=O)[C@H](Cc3ccccc3)NC(=O)[C@H]([C@@H](C)CC)NC(=O)[C@H](CO)NC(=O)CNC(=O)[C@H]([C@@H](C)CC)NC(=O)[C@H](C)NC(=O)[C@H](CCCCN)NC(=O)[C@H](CC(C)C)NC(=O)[C@@H]3CSSC[C@@H](C(=O)N[C@@H](Cc4ccc(O)cc4)C(=O)N4CCC[C@H]4C(=O)N[C@@H](CCCNC(=N)N)C(N)=O)NC(=O)[C@H](CCCCN)NC(=O)[C@H](CSSC[C@H](NC(=O)[C@H](CCC(=O)O)NC(=O)[C@H](C(C)C)NC(=O)[C@H](C(C)C)NC(=O)[C@H](C)NC(=O)[C@H](CO)NC1=O)C(=O)N[C@@H](CCCCN)C(=O)N[C@@H](CCC(N)=O)C(=O)N[C@@H](CCCCN)C(=O)N3)NC(=O)[C@H](CCCCN)NC(=O)[C@H](CCCCN)NC(=O)[C@H](CC(N)=O)NC(=O)[C@H](CCSC)NC2=O` [Compound 90] (H-S[Nle]D[Nle]RCSAVVECKQKCLKAIGSIFGKCMNKKCKCYPR-NH2; disulfide 6-27, 12-32, 16-34) reads 0.19 nM.

Take `CC[C@H](C)[C@@H]1NC(=O)[C@H](CO)NC(=O)CNC(=O)[C@H](CCCNC(=N)N)NC(=O)[C@H](C)NC(=O)[C@H](CCCCN)NC(=O)[C@H](CC(C)C)NC(=O)[C@@H]2CSSC[C@@H](C(=O)N[C@@H](Cc3ccc(O)cc3)C(=O)N3CCC[C@H]3C(=O)N[C@@H](CCCNC(=N)N)C(N)=O)NC(=O)[C@H](CCCCN)NC(=O)[C@@H]3CSSC[C@H](NC(=O)[C@H](CCC(=O)O)NC(=O)[C@H](C(C)C)NC(=O)[C@H](CO)NC(=O)[C@H](C)NC(=O)[C@H](CO)NC(=O)[C@@H](NC(=O)[C@H](CCCNC(=N)N)NC(=O)[C@H](CCSC)NC(=O)[C@H](CC(=O)O)NC(=O)[C@H](CCSC)NC(=O)[C@@H](N)CC(N)=O)CSSC[C@H](NC(=O)[C@H](CCCCN)NC(=O)CNC(=O)[C@H](Cc4ccccc4)NC1=O)C(=O)N[C@@H](CCSC)C(=O)N[C@@H](CC(N)=O)C(=O)N[C@@H](CCCCN)C(=O)N[C@@H](CCCCN)C(=O)N3)C(=O)N[C@@H](CCCCN)C(=O)N[C@@H](CCC(N)=O)C(=O)N[C@@H](CCCCN)C(=O)N2` [Compound 60] (H-NMDMRCSASVECKQKCLKARGSIFGKCMNKKCKCYPR-NH2; disulfide 6-27, 12-32, 16-34): the IC50 was 0.035 nM.
